# Measurements published in publication PMC12264121 (Scientific Reports, 2025).
# Assays:
# Format in all cases: biochemical
# hCA-IX [1] = biological target: T1, hCA-IX (Homo sapiens, UniProt Q16790); assay: biochemical
# hCA-XII [2] = biological target: T2, hCA-XII (Homo sapiens, UniProt O43570); assay: Carbonic anhydrase inhibition assay
# hCA-II [3] = biological target: T3, hCA-II (Homo sapiens, UniProt P00918); assay: Enzyme kinetics; conditions: CA-II; substrate 0-900 µM; inhibitor 0, 0.2, 0.4, 0.6 µM
# hCA-II [4] = biological target: T3, hCA-II; assay: Carbonic anhydrase inhibition assay
# hCA-IX [5] = biological target: T1, hCA-IX; assay: Enzyme kinetics; conditions: CA-IX; substrate 0-900 µM; inhibitor 0, 0.1, 0.2, 0.3 µM
# hCA-XII [6] = biological target: T2, hCA-XII; assay: Enzyme kinetics; conditions: CA-XII; substrate 0-900 µM; inhibitor 0, 0.4, 0.6, 0.8 µM
# T2 sequence (O43570 25-354): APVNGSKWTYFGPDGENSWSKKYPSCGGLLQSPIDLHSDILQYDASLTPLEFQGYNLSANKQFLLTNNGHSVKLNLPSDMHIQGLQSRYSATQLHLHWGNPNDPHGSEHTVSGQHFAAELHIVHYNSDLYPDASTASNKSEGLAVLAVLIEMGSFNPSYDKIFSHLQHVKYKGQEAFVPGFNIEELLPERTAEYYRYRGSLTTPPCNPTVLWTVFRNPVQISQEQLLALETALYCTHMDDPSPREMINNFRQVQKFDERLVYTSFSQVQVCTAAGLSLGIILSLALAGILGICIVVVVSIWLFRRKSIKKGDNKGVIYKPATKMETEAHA
Structure (SMILES),IC50 (hCA-IX [1]) [nM],inhibition of hCA-XII in words (hCA-XII [2]),IC50 (hCA-XII [2]) [nM],IC50 (hCA-II [4]) [nM],further results
"NS(=O)(=O)c1ccc(-c2ccc(Nc3ccc(F)c(Cl)c3)cc2)cc1 [Compound 9e, 4’-((3-chloro-4-fluorophenyl)amino)-[1,1’-biphenyl]−4-sulfonamide]",3430 ± 150,moderate inhibition,,,Mode of Enzyme Inhibition (hCA-II [3]): Competitive
"Cc1cc(C)cc(Nc2ccc(-c3ccc(S(N)(=O)=O)cc3)cc2)c1 [Compound 9c, 4’-((3,5-dimethylphenyl)amino)-[1,1’-biphenyl]−4-sulfonamide]",,inactive,,,inhibition of hCA-II in words (hCA-II [4]): inactive; inhibition of hCA-IX in words (hCA-IX [1]): inactive
"NS(=O)(=O)c1ccc(-c2ccc(Nc3ccc(Cl)cc3)cc2)cc1 [Compound 9a, 4’-((4-chlorophenyl)amino)-[1,1’-biphenyl]−4-sulfonamide]",2790 ± 20,,1050 ± 100,,
"NS(=O)(=O)c1ccc(-c2ccc(Nc3ccncc3)cc2)cc1 [Compound 9d, 4’-(pyridin-4-ylamino)-[1,1’-biphenyl]−4-sulfonamide]",,,,1010 ± 100,inhibitor potential as compared to standard inhibitor acetazolamide (hCA-IX [1]; hCA-IX): 8 fold; Mode of Enzyme Inhibition (hCA-IX [5]): Uncompetitive
"COC(=O)c1ccc(Nc2ccc(-c3ccc(S(N)(=O)=O)cc3)cc2)cc1 [Compound 9b, Methyl 4-((4’-sulfamoyl-[1,1’-biphenyl]−4-yl)amino)benzoate]",1460 ± 80,,690 ± 150,1030 ± 100,Mode of Enzyme Inhibition (hCA-XII [6]): Competitive
